The record followed here is article PMC9436075, “A structural basis for the functional differences between the cytosolic and plastid phosphoglucose isomerase isozymes” (PLoS ONE, 2022).

In one test the target is T1, TaPGIc (Triticum aestivum, UniProt Q1PBI3).
T1 construct: gene GPI; cytosolic PGI, CTD 510-567, HLHM 444-466; homodimer
T1 sequence (Q1PBI3 1-567): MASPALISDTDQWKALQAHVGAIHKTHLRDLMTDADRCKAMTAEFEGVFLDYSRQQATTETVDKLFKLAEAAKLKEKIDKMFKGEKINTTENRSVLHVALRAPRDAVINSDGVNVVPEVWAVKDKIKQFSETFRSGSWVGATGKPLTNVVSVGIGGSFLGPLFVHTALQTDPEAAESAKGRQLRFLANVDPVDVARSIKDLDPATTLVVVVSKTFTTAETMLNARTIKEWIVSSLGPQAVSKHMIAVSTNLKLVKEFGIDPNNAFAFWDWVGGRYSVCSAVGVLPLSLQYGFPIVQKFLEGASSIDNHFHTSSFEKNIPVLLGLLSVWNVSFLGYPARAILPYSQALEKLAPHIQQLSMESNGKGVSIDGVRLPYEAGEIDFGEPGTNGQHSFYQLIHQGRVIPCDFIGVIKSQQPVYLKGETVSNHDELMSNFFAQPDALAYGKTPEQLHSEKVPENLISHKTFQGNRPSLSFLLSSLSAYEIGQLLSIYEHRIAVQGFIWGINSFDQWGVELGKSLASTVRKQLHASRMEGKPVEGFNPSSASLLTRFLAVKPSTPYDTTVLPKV
The test can be described thus: PGI activity inhibition, dose-response. Type of test: biochemical. Conditions: read-out: IC50E4P.

In another test the target is T2, TaPGIp (Triticum aestivum, UniProt A0A3B6LNA8).
T2 construct: gene LOC123112261; plastid PGI, CTD 467-557, transit peptide probably removed; homodimer
T2 sequence (A0A3B6LNA8 64-620): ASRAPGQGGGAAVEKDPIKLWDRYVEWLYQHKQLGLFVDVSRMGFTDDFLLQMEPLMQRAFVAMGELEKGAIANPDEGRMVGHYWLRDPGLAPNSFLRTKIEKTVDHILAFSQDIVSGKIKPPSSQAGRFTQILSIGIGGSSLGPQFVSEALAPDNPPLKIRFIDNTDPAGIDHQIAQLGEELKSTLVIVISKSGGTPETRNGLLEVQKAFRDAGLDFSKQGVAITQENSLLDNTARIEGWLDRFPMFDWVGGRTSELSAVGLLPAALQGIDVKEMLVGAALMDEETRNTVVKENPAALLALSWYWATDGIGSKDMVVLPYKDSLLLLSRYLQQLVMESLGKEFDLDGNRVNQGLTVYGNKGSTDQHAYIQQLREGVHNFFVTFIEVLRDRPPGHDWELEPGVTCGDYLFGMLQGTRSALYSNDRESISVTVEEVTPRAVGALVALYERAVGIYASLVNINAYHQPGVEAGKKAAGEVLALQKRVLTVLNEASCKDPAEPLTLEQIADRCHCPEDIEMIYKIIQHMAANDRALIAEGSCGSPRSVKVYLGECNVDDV
Briefly: PGI activity inhibition, dose-response. The class given is biochemical. Conditions: read-out: IC50E4P.

Consider `O=C[C@H](O)[C@H](O)COP(=O)(O)O` [E4P, erythrose 4-phosphate], for which the values for the IC50 on TaPGIc and on TaPGIp were 130 µM and 760 µM, respectively.
